We go through one compound from US5420276A, “Analogs of oxetanyl purines and pyrimidines” (Abbott Laboratories, priority 1993, dated 1995).

Molecules are shown by their SMILES. In brackets after ≈: the same amount, converted by molar mass.

The IC50 is the midpoint of a concentration-inhibition curve. A low value points to higher potency.

For test [1], the system named is Herpes Simplex Virus Type 1. The test is described as follows: Neutral red dye uptake assay for antiviral activity, HSV-1 in Vero cells. It counts as cell-based. Conditions: Human alphaherpesvirus 1, HSV-1, Vero, concentration at which 50% CPE would be observed, read-out: MIC50. As for the experimental part:
Vero cell monolayers were harvested by trypsinization. The number of viable cells per ml. was determined by staining an aliquot with trypan blue and counting in a hemocytometer. Cell densities were adjusted in growth medium to contain 4×10^5 cells/mi. 96-well sterile tissue culture plates were seeded with 100 μl/well of the adjusted cell suspensions, i.e., 4×10^4 cells/well. Seeded plates were incubated overnight at 37° C. with CO2.
After overnight incubation, monolayers were approximately confluent. The growth medium was removed and the monolayers in each cell were infected with 100 μl of virus diluted in maintenance medium to produce approximately 90% cytopathogenic effect (CPE) after 2 to 3 days incubation. The virus was allowed to adsorb for 1 hour at 37° C. with 4 to 6% CO2. Controls for cell growth were overlayed with virus-free maintenance medium. The maintenance medium containing residual virus was removed.
The test compounds were dissolved and/or diluted in maintenance medium to the concentration desired for testing and were added to the wells of the plate. Aliquots (100 μl ) of each concentration were added to wells in replicate (duplicate or triplicate). Controls for virus activity were overlayed with drug-free maintenance medium. Replicate wells containing only maintenance medium served as controls for background absorbance levels.
After incubation, the medium was removed from all the wells. 100 μl of neutral red solution was added to each well and the plate was incubated at 37° C. without CO2 for 2 hours. After the 2 hour incubation, the excess neutral red solution was removed. […]
The neutral red stain taken up by the viable cells was extracted by adding 100 μl/well of acidified methanol, pH 1.0. […] The amount of neutral red stain extracted into the methanol was quantified by determining the absorbance at a wavelength of 540 nm.
The percent CPE in virus controls was determined by the following formula: [formula]
The percent CPE in cells infected with virus and treated with the test compound was determined by the following formula: [formula] […]

For the next test, the system named is HSV-1 (E-377). The test is described as follows: CPE inhibition assay (MTT), HSV-1 (E-377) in Vero cells. Conditions: Human alphaherpesvirus 1, inhibited CPE by 50%. It counts as cell-based, herpes simplex virus type 1. The method, then: Vero cells were pregrown as monolayers in wells of COSTAR 96-well tissue culture plates using suitable cell culture media. Stock viruses were pretitered according to the method of Reed and Muench (Amer. J. Hyg. 27 493 (1938)) and diluted in cell culture medium to yield 32 CCID50 (cell culture infectious dose, 50%) units per 0.1 mL. Antiviral assays were designed to test six concentrations of each compound, from cytotoxic to noncytotoxic levels, in triplicate against each of the challenge viruses in microtiter plate wells containing cell monolayers. To each of the replicate cell cultures were added 0.1 mL of the test-compound solution and 0.1 mL of virus suspension. Two compounds were evaluated per plate. The following controls were included:
(1) Cell controls containing cells+medium;
(2) Untreated, virus-infected cell controls;
(3) Test-compound cytotoxicity controls containing uninfected, test-compound treated cells;
(4) Test-compound color controls-test-compound+medium (no cells); and
(5) Reagent (experiment medium) controls-medium only (no cells).
The covered plates were incubated at 37° C. in a humidified atmosphere containing 2% CO2. When cytopathogenic effect (CPE) in untreated virus control wells reached 100%, 20 μL of 3-(4,5-dimethyl-thiazol-2-yl)-2,5-diphenyl tetrazolium bromide (MTT) (dissolved in PBS at 5 mg/mL) was pipetted into each of the plate wells. The plates were incubated at 37° C. for six hours; then 40 μL of 30% SDS (in 0.02N HCl) was added to each well. After overnight incubation at 37° C., the blue color or the MTT formazan was measured spectrophotometrically at 570 nm. The optical density (OD) value of each culture is a function of the amount of formazan produced which is proportional to the number of viable cells. A computer program was utilized to calculate the percent (CPE) reciprocal of % CPE reduction) of the virus-infected wells and % cell viability of the uninfected test-compound control wells.
The IC50 value is the minimum test-compound concentration (μg/mL) that inhibited CPE by 50% calculated by using a regression analysis program for semilog curve fitting. The TC25 value is the minimum test-compound concentration (μg/mL) that reduced cell viability by 25%.

Consider `O=c1[nH]c(=O)n([C@@H]2O[C@H](CO)[C@H]2CO)cc1C=CBr` [Example 44, 1-([2'R, 3'R, 4'S]-3',4'-Bis(hydroxymethyl)-2'-oxetanyl)-5-(2-bromo-1-vinyl)uracil], for which, in test [1], the EC50 was found to be 0.09 µg/mL (≈ 0.27 µM). For the same compound, inhibition in the test on HSV-1 (E-377) was half-maximal at 0.072 µg/mL (≈ 0.216 µM) (IC50).
